Measurements as given in PMC2397535 (Breast Cancer Research : BCR, 2008).
Where two headings read alike, the source gives them in different places.

What was measured:
MAXF 583 = experiment: clonogenic (soft agar colony formation) assay, primary breast tumor; assay type: cell-based, human
[1] = pharmacokinetics and biodistribution in BT-474 tumor-bearing mice (HPLC/MS-MS); assay type: in vivo; details: for Kp: intravenous; for Kp / half-life: 30 mg/kg
Method: At various time points, mice (n = 4) were sacrificed and blood and tissues (tumor, liver, lung, heart, and muscles) were dissected. […] Frozen tissues were minced, then homogenized in an equal volume of ice-cold phosphate-buffered saline (Sigma P4417; Sigma-Aldrich) using a Polytron homogenizer (TP18-10; IKA, Staufen, Germany) and keeping the material cold during the homogenization. After the addition of 50 μL of internal standard (1 μg/mL) to analytical aliquots (25 to 250 μL) of plasma or tissue homogenate, the proteins were precipitated by the addition of an equal volume of acetonitrile and processed further for chromatographic separation. […] An aliquot (5 μL) of this solution was separated on a […] Ultra Cyano reverse-phase HPLC column (column size 50 × 1 mm, particle size 3 μm, preceded by a guard column: PhenomenexTM AJO-4304 Phenylpropyl, size 4 × 2 mm (Phenomenex, Torrance, CA, USA)) with a mobile phase consisting of a mixture of 0.2% formic acid in water (solvent A) and 0.2% formic acid in acetonitrile (solvent B). The column eluent was introduced directly into the ion source of the triple-quadrupole mass spectrometer Quattro UltimaTM (Micromass Limited, now part of Waters Corporation, Milford, MA, USA) controlled by MasslynxTM 4.0 software. Positive electrospray ionization multiple-reaction monitoring was used for the MS/MS detection of the analyte. Precursors to product ion transitions of m/z 466.[…]/z 308.20 for NVP-AUY922-NX and m/z 480.[…]/z 308.15 for IS VER814 were used. […] Regression analysis and further calculations were performed using QuanLynxTM 4.0 (Waters Corporation, Milford, MA, USA) and ExcelTM 2002 (Microsoft Corporation, Redmond, WA, USA). Concentrations of unknown samples were calculated from the peak area ratio of the product ion of the analytes to the product ion of its internal standard (ordinate) against the nominal concentration (abscissa). Assay linearity was indicated by an overall regression coefficient of 0.9975.

MDA-MB-231 = experiment: antiproliferative effect (GI50), breast cancer cell line; assay type: cell-based; details: Homo sapiens
HSP70 = HSP70 induction in BT-474 xenografts (immunohistochemistry); assay type: in vivo, mice; details: single 50 mg/kg dose
Method: Formalin-fixed paraffin-embedded tissue sections were stained using the Ventana Discovery System (Ventana Medical Systems, Inc., Tucson, AZ, USA). Deparaffinization of tissue sections and heat-induced epitope retrieval using Standard Cell Conditioning Solution 1 (Ventana Medical Systems, Inc.) were performed directly on the System. A rabbit anti-human ERBB2 (HER2) monoclonal antibody (Lab Vision Corporation, Fremont, CA, USA) and a mouse anti-human HSP70 (Assay Designs, Inc.) were prepared in Dako diluent (Dako North America, Inc., Carpinteria, CA, USA) and used at concentrations of 2 ug/mL for 32 minutes and 10 ug/mL for 60 minutes, respectively. For HSP70 staining, slides were incubated with a biotin-labeled anti-mouse IgG1 (Research Diagnostics, Inc., now known as Fitzgerald Industries International, Concord, MA, USA) at a concentration of 1.25 ug/mL diluted in M.O.M. (Mouse-on-Mouse) (Vector Laboratories, Peterborough, UK). Detection using a 3,3'-diaminobenzadine reaction was performed on the section by using the Ventana OmniMAP DAB for the ERBB2 antibody and the Ventana DAB Map reagent for the HSP70 antibody (Ventana Medical Systems, Inc.). Each tissue section was subsequently counterstained with hematoxylin. To ensure antibody specificity, consecutive tissue sections were incubated with normal isotype-matched immunoglobulins (rabbit IgG; Jackson ImmunoResearch Laboratories, Inc., West Grove, PA, USA, and mouse IgG1; Lab Vision Corporation) used at concentrations equivalent to Her2 and HSP70 antibodies. Stained tissue sections were quantified using the Aperio Digital Pathology System (Aperio Technologies, Inc., Vista, CA, USA).
Invasive procedures were performed under Forene anesthesia. […] The animals were fed food and water ad libitum.

MAXF 1162 = experiment: clonogenic (soft agar colony formation) assay, primary breast tumor; assay type: cell-based, human
[2] = system: panel of human breast cancer cell lines; experiment: antiproliferative effect, panel of seven breast cancer cell lines (summary values); assay type: cell-based
MAXF 1384 = experiment: clonogenic (soft agar colony formation) assay, primary breast tumor; assay type: cell-based, human
SkBr3 = experiment: antiproliferative effect (GI50), breast cancer cell line; assay type: cell-based; details: Homo sapiens, SK-BR-3
[3] = 48 hours after compound administration

CCNC(=O)c1noc(-c2cc(C(C)C)c(O)cc2O)c1-c1ccc(CN2CCOCC2)cc1 [NVP-AUY922]
IC70 (colony formation) (MAXF 583): 0.569 µM | IC50 (MAXF 583; Homo sapiens): 0.333 µM | plasma concentrations [1, 3]: below levels of quantitation | tumor concentration [1, 3]: 2.22 nmol/g | Kp ([1]; female, athymic, mouse, heart, read-out: tissue exposure over 48 hours relative to plasma): 5 | half-life ([1]; female, athymic, mouse, heart, iv, heart, 30 mg/kg single i.v., read-out: T 1/2 elimination λ_z (converted)): 5.6 h | AUC(0-t) ([1]; female, athymic, mouse, iv, plasma, 30 mg/kg single i.v., read-out: AUC(0-8)): 7.3 µM·h | Cmax ([1]; female, athymic, mouse, iv, plasma, 30 mg/kg single i.v., read-out: Cmax): 14.1 ± 4.14 µM | Kp ([1]; female, athymic, mouse, liver, read-out: tissue exposure over 48 hours relative to plasma): 7 | half-life ([1]; female, athymic, mouse, liver, iv, liver, 30 mg/kg single i.v., read-out: T 1/2 elimination λ_z (converted)): 7.7 h | half-life ([1]; female, athymic, mouse, liver, lung, heart, muscle, iv, liver, lung, heart, muscle, read-out: terminal elimination half-life from non-tumor tissues): 5.5 to 8 h | Kp ([1]; female, athymic, mouse, lung, read-out: tissue exposure over 48 hours relative to plasma): 10 | half-life ([1]; female, athymic, mouse, lung, iv, lung, 30 mg/kg single i.v., read-out: T 1/2 elimination λ_z (converted)): 5.5 h | Kp ([1]; female, athymic, mouse, muscle, read-out: tissue exposure over 48 hours relative to plasma): 5 | half-life ([1]; female, athymic, mouse, muscle, iv, muscle, 30 mg/kg single i.v., read-out: T 1/2 elimination λ_z (converted)): 8 h | half-life ([1]; female, athymic, mouse, plasma, iv, based on the last three time points, read-out: apparent terminal elimination half-life in plasma (converted)): 10 h | half-life ([1]; female, athymic, mouse, plasma, iv, plasma, 30 mg/kg single i.v., read-out: T 1/2 elimination λ_z (converted)): 10.3 h | Kp ([1]; female, athymic, mouse, tumor, read-out: tumor exposure relative to plasma): ~47 | half-life ([1]; female, athymic, mouse, tumor, iv, tumor, 30 mg/kg single i.v., read-out: T 1/2 elimination λ_z (converted)): 30 h | half-life ([1]; female, athymic, mouse, tumor, iv, tumor, read-out: terminal half-life in tumor): 25 to 30 h | AUC(0-8) ([1]; heart, 30 mg/kg single i.v.): 32 nmol·h/g | Cmax ([1]; heart, 30 mg/kg single i.v.): 36.86 ± 7.42 nmol/g | dose-normalized plasma exposure ([1]; i.v. 20 mg/kg): 0.28 µmol·h/L | dose-normalized plasma exposure ([1]; i.v. 30 mg/kg): 0.24 µmol·h/L | AUC(0-8) ([1]; liver, 30 mg/kg single i.v.): 53 nmol·h/g | Cmax ([1]; liver, 30 mg/kg single i.v.): 30.94 ± 5.58 nmol/g | AUC(0-8) ([1]; lung, 30 mg/kg single i.v.): 71 nmol·h/g | Cmax ([1]; lung, 30 mg/kg single i.v.): 48.48 ± 10.11 nmol/g | AUC(0-8) ([1]; muscle, 30 mg/kg single i.v.): 35 nmol·h/g | Cmax ([1]; muscle, 30 mg/kg single i.v.): 27.45 ± 6.64 nmol/g | Cmax (highest concentration) ([1]; tumor): 16.3 nmol/g | tumor drug level at 48 hours as share of Cmax ([1]; tumor): approximately 13% | AUC(0-8) ([1]; tumor, 30 mg/kg single i.v.): 345 nmol·h/g | Cmax ([1]; tumor, 30 mg/kg single i.v.): 16.36 ± 3.84 nmol/g | GI50 (MDA-MB-231): 0.007 ± 0.0017 µM | HSP70 staining intensity, recovery (HSP70): gradually returned to baseline over one week | time point of peak HSP70 staining intensity (HSP70): 24 h | HSP70 staining intensity (HSP70; 6 hours after administration): strongly increased HSP70 staining | IC70 (colony formation) (MAXF 1162): 0.505 µM | IC50 (MAXF 1162; Homo sapiens): 0.304 µM | GI50 ([2]; seven cell lines, read-out: GI50 values, range over human breast cancer cell lines): 0.003 to 0.126 µM | GI50 ([2]; six of the seven breast cancer cell lines, read-out: average GI50 value): 0.0054 µM | IC70 (colony formation) (MAXF 1384): 0.477 µM | IC50 (MAXF 1384; Homo sapiens): 0.209 µM | GI50 (SkBr3): 0.0033 ± 0.0009 µM
